Where two headings read alike, the source gives them in different places.

Data set [1] has as its system MCL1-wild-type (WT) MEF cells. Description: cell growth inhibition, WST assay, wild-type MEF. Format: cell-based. The conditions noted are these: Mus musculus, 72 h, 3 days. How it is done: (§1) All the SCLC cell lines were purchased from American Type Culture Collection (Manassas, VA) and cultured as recommended. All these cell lines were passaged fewer than 6 months after purchase. MCL1 knockout (MCL1^−/−) MEF cells were kindly provided by Dr. David Huang (The Walter and Eliza Hall Institute of Medical Research, Melbourne, Australia). Cell growth inhibition was evaluated by means of a WST-8 assay (Dojindo, Rockville, MD) as described previously. Mitochondrial membrane potential was determined by JC-1 staining using a JC-1 Mitochondrial Membrane Potential Assay kit (Cayman). Apoptosis analysis was performed using an Annexin V/propidium iodide (PI) apoptosis detection kit (Roche Applied Sciences, Indianapolis, IN).
(§2) (B) MCL1^−/− cells were treated with 100 nM of BM-1197 for 16 h and stained with Annexin V/PI for flow cytometry. […] They are given in the order upper left, upper right, lower left, lower right.

Data set [2] has as its system MCL1-deficient (MCL1−/−) MEF cells. The data set is described as follows: cell growth inhibition, WST assay, MCL1-deficient MEF. Format: cell-based, mouse. The note with it: Mus musculus, MEF, 72 h; 3 days, WST assay. The protocol: as §1, §2
In data set [3] the target is T1, Bcl-xL (Mus musculus, UniProt Q64373).
T1 construct: endogenous in cells; host or cells: MEF MCL1-/- cells
T1 sequence (Q64373 whole entry): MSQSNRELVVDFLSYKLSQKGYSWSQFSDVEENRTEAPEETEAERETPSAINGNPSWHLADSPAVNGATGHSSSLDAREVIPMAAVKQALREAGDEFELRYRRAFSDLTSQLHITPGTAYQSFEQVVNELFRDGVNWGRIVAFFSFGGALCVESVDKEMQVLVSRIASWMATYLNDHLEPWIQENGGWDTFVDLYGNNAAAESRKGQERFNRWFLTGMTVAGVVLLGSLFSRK
The data set is described as follows: cellular thermal shift assay (CETSA), Bcl-xL. Format: cell-based. The conditions noted are these: 1 µM, 1 h, MEF MCL1−/− cells. The protocol:
(§3) Drug-target engagement was assessed using CETSA as described by Molina et al.. Briefly, cells were treated with drugs for 1 h, then harvested, washed with PBS, and resuspended in PBS. The resuspended cells were freeze-thawed 4 times. The soluble fraction (lysate) was separated from cell debris by centrifugation at 20000×g for 20 minutes at 4°C and then analyzed by Western blots.
(§4) Drug-treated cells were heated at gradient temperature from 42°C to 62°C for 3 min then freeze-thawed 4 times. The soluble fractions of the lysed cells were analyzed by immunoblotting. (B) MEF MCL1^− ^/− cells were treated with drugs at the indicated doses for 1 h before collected for CETSA.

Data set [4] deals with T2, Bcl-2 (Mus musculus, UniProt P10417).
T2 construct: endogenous in cells; host or cells: MEF MCL1-/- cells
T2 sequence (P10417 whole entry): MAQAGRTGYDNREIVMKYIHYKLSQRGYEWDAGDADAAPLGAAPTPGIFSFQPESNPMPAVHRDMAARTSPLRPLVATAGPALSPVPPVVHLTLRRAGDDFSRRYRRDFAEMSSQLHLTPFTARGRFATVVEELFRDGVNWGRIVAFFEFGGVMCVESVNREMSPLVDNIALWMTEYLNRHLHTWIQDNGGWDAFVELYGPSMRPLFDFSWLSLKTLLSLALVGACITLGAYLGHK
Description: cellular thermal shift assay (CETSA), Bcl-2. Format: cell-based. The conditions noted are these: 1 µM, 1 h, MEF MCL1−/− cells. How it is done:
as §3, §4

For the next data set, the system named is H146. Description: SCLC cell growth inhibition (WST-8), H146. The conditions noted are these: Homo sapiens. Format: cell-based. How it is done: as §1
Data are representative of two independent experiments.
In general terms: Tetrazolium assays rely on reduction of a dye to a coloured formazan, in cell work by metabolically active cells.

The test system of another data set is H1417. Description: SCLC cell growth inhibition (WST-8), H1417. Format: cell-based. The conditions noted are these: Homo sapiens, NCI-H1417; 96-h incubation, means ± SD (n = 3–6). The protocol: as §1
The test system of a further data set is H1963. The data set is described as follows: SCLC cell growth inhibition (WST-8), H1963. Format: cell-based. The note with it: Homo sapiens, NCI-H1963; 96-h incubation, means ± SD (n = 3–6). The protocol:
as §1

The subject of another data set is H211. Description: SCLC cell growth inhibition (WST-8), H211. Format: cell-based. The note with it: Homo sapiens, NCI-H211; 96-h incubation, means ± SD (n = 3–6). The protocol: as §1
A further data set relates to H187. The data set is described as follows: SCLC cell growth inhibition (WST-8), H187. Format: cell-based. The note with it: Homo sapiens, NCI-H187; 96-h incubation, means ± SD (n = 3–6). The protocol:
as §1

The next data set relates to DMS79. Description: SCLC cell growth inhibition (WST-8), DMS79. Format: cell-based. The note with it: Homo sapiens, DMS-79; 96-h incubation, means ± SD (n = 3–6). The protocol: as §1
For another data set, the system named is H889. Description: SCLC cell growth inhibition (WST-8), H889. Format: cell-based. The note with it: Homo sapiens, NCI-H889; 96-h incubation, means ± SD (n = 3–6). How it is done: as §1
In a further data set the test system is SW1271. The data set is described as follows: SCLC cell growth inhibition (WST-8), SW1271. Format: cell-based. The conditions noted are these: Homo sapiens, 96-h incubation, means ± SD (n = 3–6). How it is done: as §1
The test system of another data set is DMS53. The data set is described as follows: SCLC cell growth inhibition (WST-8), DMS53. Format: cell-based. The conditions noted are these: Homo sapiens, DMS-53; 96-h incubation, means ± SD (n = 3–6). How it is done: as §1
The subject of another data set is H82. Description: SCLC cell growth inhibition (WST-8), H82. The conditions noted are these: Homo sapiens, NCI-H82; 96-h incubation, means ± SD (n = 3–6). Format: cell-based. How it is done: as §1
The next data set deals with DMS273. The data set is described as follows: SCLC cell growth inhibition (WST-8), DMS273. Format: cell-based. The note with it: Homo sapiens, DMS-273; 96-h incubation, means ± SD (n = 3–6). The protocol: as §1
In another data set the test system is H196. Description: SCLC cell growth inhibition (WST-8), H196. Format: cell-based. The note with it: Homo sapiens, NCI-H196; 96-h incubation, means ± SD (n = 3–6). The protocol:
as §1

The next data set deals with H146 xenograft tumors. Description: H146 subcutaneous xenograft model. Format: in vivo, SCID mice. How it is done: Tumor sizes were measured 2–3 times per week. Tumor growth inhibition was calculated by using the formula: 100% (mean volume of controls - mean volume of treated)/mean volume of controls.
Figure 10 In vivo antitumor activity of BM-1197. […] Data shown are mean ± SEM for 6–8 mice. (E & F) SCID mice bearing H146 or H1963 cells were treated with 10 mg/kg of BM-1197 IV for the indicated times. Tumor lysates were analyzed by immunoblotting.

In data set [5] the target is Bcl-2 (Homo sapiens, UniProt P10415). The note with it: cited from earlier work.
Sequence of Bcl-2 (Homo sapiens, UniProt P10415) (P10415 whole entry): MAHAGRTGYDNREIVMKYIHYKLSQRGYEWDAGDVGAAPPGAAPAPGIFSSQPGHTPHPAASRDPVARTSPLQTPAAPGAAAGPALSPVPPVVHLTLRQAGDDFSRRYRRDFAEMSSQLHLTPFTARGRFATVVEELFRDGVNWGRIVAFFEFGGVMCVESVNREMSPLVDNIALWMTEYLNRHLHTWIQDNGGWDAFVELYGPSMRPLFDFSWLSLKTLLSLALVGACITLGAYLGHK
Data set [6] concerns the target Bcl-xL (Homo sapiens, UniProt Q07817). The conditions noted are these: cited from earlier work.
Data set [7] deals with four small-cell lung cancer cell lines sensitive to ABT-263. Further details: method as in PMID 23448298. The note with it: cited from earlier work.
Data set [8] concerns H146 small-cell lung cancer xenograft. The arrangement: method as in PMID 23448298. The note with it: H146 xenograft in SCID mice; cited from earlier work.

Sequence of Bcl-xL (Homo sapiens, UniProt Q07817) (Q07817 whole entry): as the sequence (Q64373 whole entry) above, with E40G, A43S, R45M, S168A, D193E counted along it

Turning to `CC1(C)CCC(c2ccc(Cl)cc2)=C(CN2CCN(c3ccc(C(=O)NS(=O)(=O)c4ccc(N[C@H](CCN5CCOCC5)CSc5ccccc5)c(S(=O)(=O)C(F)(F)F)c4)cc3)CC2)C1` [ABT-263, reference compound], the IC50 in data set [1] was > 2000 nM; in [2], 41 ± 3 nM; in the data set on H146 (NCI-H146, 96 h, read-out: IC50 (1% FBS), H146, 4 days, WST assay, 1% FBS) it was 3.5 nM; in the data set on H146 (NCI-H146, 96 h, read-out: IC50 (1% FBS+3% HSA), H146, 4 days, WST assay, 1% FBS+3% HSA), 83 nM; in the data set with H146 (NCI-H146, 96 h, read-out: IC50 (10% FBS), H146, 4 days, WST assay, 10% FBS), 26.8 nM; with H146 (NCI-H146, 96 h, read-out: IC50 (50% FBS), H146, 4 days, WST assay, 50% FBS) it was 75.2 nM. In addition, the IC50 in the data set with H146 (NCI-H146, 96-h incubation, means ± SD (n = 3–6), read-out: IC50 cell growth, H146) was 24 ± 12 nM; in the data set with H1417, 79 ± 31 nM; in the data set on H1963, 30 ± 17 nM; in the data set on H211, 66 ± 50 nM; in the data set on H187, 70 ± 29 nM; in the data set on DMS79, 430 ± 343 nM. The IC50 is 30 ± 11 nM with H889; > 2000 nM in the data set on SW1271; 197 ± 50 nM in the data set with DMS53; > 2000 nM in the data set with H82; > 2000 nM with DMS273; > 2000 nM in the data set on H196. Also, the “thermal stability of Bcl-xL protein” value on Bcl-xL [3] is given as “enhanced”. For the same compound, the “thermal stability of Bcl-2 protein” value at Bcl-2 [4] was “enhanced”. Also, the “tumors regrown 29 days after the last treatment” value with H146 xenograft tumors (100 mg/kg daily oral dosing) is given as “Four out of 8”. Further, the “tumors regrown 57 days after the last treatment” value in the data set with H146 xenograft tumors (100 mg/kg daily oral dosing) is listed as 7 of the 8. Further, the tumor regression entry in the data set with H146 xenograft tumors (100 mg/kg daily oral dosing (5 days per week), 14 days after the start of the treatment) is recorded as “regressed H146 tumors to a barely palpable state”. Further, the “weight loss compared to control group” value with H146 xenograft tumors (all dose-schedules in H146 model, no other signs of toxicity) is “no statistically significant weight loss”.

For the compound `Cc1c(C(=O)NS(C)(=O)=O)c(-c2cccc(N3CCN(c4ccc(NS(=O)(=O)c5ccc(N[C@H](CCN(C)C)CSc6ccccc6)c([N+](=O)[O-])c5)cc4)CC3)c2)c(-c2ccc(Cl)cc2)n1C(C)C` [BM-1074], the Ki on Bcl-2 [5] and at Bcl-xL [6] was < 1 nM throughout. For the same compound, the IC50 in data set [7] (four small-cell lung cancer cell lines sensitive to ABT-263, read-out: IC50 cancer cell growth) was 1 to 2 nM. The “times more potent than ABT-263” value in [7] (four small-cell lung cancer cell lines) is listed as > 10 times. For the same compound, in [8], the tumor regression result was “rapid, complete, and durable tumor regression”.

What is called IC50 is the concentration that gives 50% inhibition. Usually Ki stands for the dissociation constant of the complex between target and ligand, obtained from inhibition or displacement.

Values taken from PMC4047118, “BM-1197: A Novel and Specific Bcl-2/Bcl-xL Inhibitor Inducing Complete and Long-Lasting Tumor Regression In Vivo” (PLoS ONE, 2014).
